This note sets out measurements from patent publication US20100184751A1, “HETEROCYCLIC COMPOUNDS FOR THE TREATMENT OF TUBERCULOSIS” (priority 2007, published 2010).

The subject of the assay is Mycobacterium tuberculosis H37Rv. Briefly: Mycobacterium tuberculosis H37Rv inhibition assay (resazurin MIC). It counts as cell-based. To be noted: ATCC 25618 / H37Rv, read-out: MIC value. Background: Resazurin is reduced to fluorescent resorufin, in cell work by metabolically active cells.
Setting [1] is: 144 h, H37Rv strain (ATCC25618), Middlebrook 7H9, 37° C., six days, resazurin fluorescence after 48 hours.
Setting [2] is: H37Rv strain (ATCC25618), Middlebrook 7H9, 37° C., six days, resazurin fluorescence after 48 hours.

Where a name gives a salt, the structure may show the parent alone. Read-outs that look alike come from different tables or passages of the source.

For orientation: MIC means the least concentration at which growth counts as inhibited. Regarding `O=C1COc2ccc(CNC3CCN(CC4(F)Cn5c(=O)ccc6ncc(F)c4c65)CC3)nc2N1` (stereo not drawn) [Example 32, 3,4-Difluoro-4-[(4-{[(3-oxo-3,4-dihydro-2H-pyrido[3,2-b][1,4]oxazin-6-yl)methyl]amino}-1-piperidinyl)methyl]-4,5-dihydro-7H-pyrrolo[3,2,1-de]-1,5-naphthyridin-7-one Dihydrochloride (E1 Enantiomer)], the MIC was at most 1.7 µg/mL. Besides, under “144 h”, the MIC was at most 4 µg/mL.
Consider `O=c1ccc2ncc(F)c3c2n1C[C@@]3(O)CN1CCC(NCc2ccc3nnsc3c2)CC1` [Example 53, (4S)-4-({4-[(1,2,3-benzothiadiazol-6-ylmethyl)amino]-1-piperidinyl}methyl)-3-fluoro-4-hydroxy-4,5-dihydro-7H-pyrrolo[3,2,1-de]-1,5-naphthyridin-7-one], for which the minimum inhibitory concentration (MIC) is at most 4 µg/mL under setting [1] and at most 1.7 µg/mL under setting [2].
As for `O=C1CSc2ccc(CNC3CCN(CC4(O)Cn5c(=O)ccc6ncc(Cl)c4c65)CC3)nc2N1` (racemic) [Example 14, (4R/S)-3-Chloro-4-hydroxy-4-[(4-{[(3-oxo-3,4-dihydro-2H-pyrido[3,2-b][1,4]thiazin-6-yl)methyl]amino}-1-piperidinyl)methyl]-4,5-dihydro-7H-pyrrolo[3,2,1-de]-1,5-naphthyridin-7-one Dihydrochloride], the MIC is at most 1.7 µg/mL. Under setting [1], the minimal inhibitory concentration (MIC) is at most 4 µg/mL.
As for `O=c1ccc2ncc(F)c3c2n1C[C@@]3(O)CN1CCC(NCc2ccc3nsnc3c2)CC1` [Example 35, (4S)-4-({4-[(2,1,3-benzothiadiazol-5-ylmethyl)amino]-1-piperidinyl}methyl)-3-fluoro-4-hydroxy-4,5-dihydro-7H-pyrrolo[3,2,1-de]-1,5-naphthyridin-7-one], the MIC is at most 4 µg/mL under setting [1] and at most 1.7 µg/mL under setting [2].
With `O=c1ccc2ncc(F)c3c2n1C[C@@]3(O)CN1CCC(NCc2ccc3cccc(O)c3n2)CC1` [Example 49, (4S)-3-fluoro-4-hydroxy-4-[(4-{[(8-hydroxy-2-quinolinyl)methyl]amino}-1-piperidinyl)methyl]-4,5-dihydro-7H-pyrrolo[3,2,1-de]-1,5-naphthyridin-7-one], under setting [1], the MIC was at most 4 µg/mL.
For the molecule `N#Cc1cc(CNC2CCN(C[C@]3(O)Cn4c(=O)ccc5ncc(F)c3c54)CC2)cc2c1OCC2` [Example 41, 5-{[(1-{[(4S)-3-fluoro-4-hydroxy-7-oxo-4,5-dihydro-7H-pyrrolo[3,2,1-de]-1,5-naphthyridin-4-yl]methyl}-4-piperidinyl)amino]methyl}-2,3-dihydro-1-benzofuran-7-carbonitrile], the MIC was at most 4 µg/mL under setting [1] and at most 1.7 µg/mL under setting [2].
Take `O=c1ccc2ncc(F)c3c2n1C[C@@]3(O)CN1CCC(NCc2ccc3ccccc3n2)CC1` [Example 51, (4S)-3-fluoro-4-hydroxy-4-({4-[(2-quinolinylmethyl)amino]-1-piperidinyl}methyl)-4,5-dihydro-7H-pyrrolo[3,2,1-de]-1,5-naphthyridin-7-one]: the MIC under setting [1] is at most 4 µg/mL.
Take `O=c1ccc2ncc(F)c3c2n1C[C@@]3(O)CN1CCC(NCc2ccc3c(c2)OCCO3)CC1` [Example 3A, (4S)-4-({4-[(2,3-Dihydro-1,4-benzodioxin-6-ylmethyl)amino]-1-piperidinyl}methyl)-3-fluoro-4-hydroxy-4,5-dihydro-7H-pyrrolo[3,2,1-de]-1,5-naphthyridin-7-one (E1 Enantiomer Series) Dihydrochloride]: the MIC is at most 4 µg/mL under setting [1] and at most 1.7 µg/mL under setting [2].
For the molecule `O=c1ccc2ncc(F)c3c2n1C[C@@]3(O)CN1CCC(NCc2cc3c(cn2)OCCO3)CC1` [Example 1, (4S)-4-({4-[(2,3-Dihydro[1,4]dioxino[2,3-c]pyridin-7-ylmethyl)amino]-1-piperidinyl}methyl)-3-fluoro-4-hydroxy-4,5-dihydro-7H-pyrrolo[3,2,1-de]-1,5-naphthyridin-7-one (E1 Enantiomer Series) Hydrochloride], under setting [1], the MIC is at most 4 µg/mL.
Take `O=c1ccc2ncc(F)c3c2n1CC3(F)CN1CCC(NCc2cc3c(cn2)OCCO3)CC1` (stereo not drawn) [Example 26B, 4-({4-[(2,3-Dihydro[1,4]dioxino[2,3-c]pyridin-7-ylmethyl)amino]-1-piperidinyl}methyl)-3,4-difluoro-4,5-dihydro-7H-pyrrolo[3,2,1-de]-1,5-naphthyridin-7-one Dihydrochloride(E1 Enantiomer)]: the MIC (144 h) was at most 4 µg/mL.
`O=c1ccc2ncc(Cl)c3c2n1CC3(O)CN1CCC(NCc2cc3c(cn2)OCS3)CC1` (racemic) [Example 15, (4R/S)-3-Chloro-4-hydroxy-4-({4-[([1,3]oxathiolo[5,4-c]pyridin-6-ylmethyl)amino]-1-piperidinyl}methyl)-4,5-dihydro-7H-pyrrolo[3,2,1-de]-1,5-naphthyridin-7-one Dihydrochloride]: the MIC under setting [1] was at most 4 µg/mL.
As for `O=c1ccc2ncc(F)c3c2n1C[C@@]3(O)CN1CCC(NCc2cc3c(cn2)SCCO3)CC1` [Example 23A, Dihydrochloride], the MIC by setting is: under setting [1], at most 4 µg/mL; under setting [2], at most 1.7 µg/mL.
In the same order, the values of `O=c1ccc2ncc(F)c3c2n1C[C@@]3(O)CN1CCC(NCc2ccc3snnc3c2)CC1` [Example 46, (4S)-4-({4-[(1,2,3-benzothiadiazol-5-ylmethyl)amino]-1-piperidinyl}methyl)-3-fluoro-4-hydroxy-4,5-dihydro-7H-pyrrolo[3,2,1-de]-1,5-naphthyridin-7-one] are at most 4 µg/mL and at most 1.7 µg/mL.
As to `O=c1ccc2ncc(F)c3c2n1C[C@@]3(O)CN1CCC(NCc2cnc3snnc3c2)CC1` [Example 56, (4S)-3-fluoro-4-hydroxy-4-({4-[([1,2,3]thiadiazolo[5,4-b]pyridin-6-ylmethyl)amino]-1-piperidinyl}methyl)-4,5-dihydro-7H-pyrrolo[3,2,1-de]-1,5-naphthyridin-7-one], the MIC under setting [1] is at most 4 µg/mL and the minimum inhibitory concentration (MIC) under setting [2] was at most 1.7 µg/mL.
In the case of `O=c1ccc2ncc(Cl)c3c2n1CC3(O)CN1CCC(NCc2cc3c(cn2)OCCC3)CC1` (racemic) [Example 13, (4R/S)-3-Chloro-4-({4-[(3,4-dihydro-2H-pyrano[2,3-c]pyridin-6-ylmethyl)amino]-1-piperidinyl}methyl)-4-hydroxy-4,5-dihydro-7H-pyrrolo[3,2,1-de]-1,5-naphthyridin-7-one Dihydrochloride], the MIC under setting [1] was at most 4 µg/mL.
Consider `O=c1ccc2ncc(F)c3c2n1C[C@@]3(O)CN1CCC(NCc2cc3c(cn2)OCCS3)CC1` [Example 8A, (4S)-4-({4-[(2,3-Dihydro[1,4]oxathiino[2,3-c]pyridin-7-ylmethyl)amino]-1-piperidinyl}methyl)-3-fluoro-4-hydroxy-4,5-dihydro-7H-pyrrolo[3,2,1-de]-1,5-naphthyridin-7-one (E1 Enantiomer Series) Dihydrochloride], for which the minimal inhibitory concentration (MIC) is, setting by setting: under setting [1], at most 4 µg/mL; under setting [2], at most 1.7 µg/mL.
As for `O=c1ccc2ncc(F)c3c2n1C[C@@]3(O)CN1CCC(NCc2cnc3ccccc3c2)CC1` [Example 37, (4S)-3-fluoro-4-hydroxy-4-({4-[(3-quinolinylmethyl)amino]-1-piperidinyl}methyl)-4,5-dihydro-7H-pyrrolo[3,2,1-de]-1,5-naphthyridin-7-one], the MIC runs as follows: under setting [1], at most 4 µg/mL; under setting [2], at most 1.7 µg/mL.
In the same order, the values of `O=c1ccc2ncc(F)c3c2n1C[C@@]3(O)CN1CCC(NCc2cc3cc(F)cc(F)c3[nH]2)CC1` [Example 54, (4S)-4-[(4-{[(5,7-difluoro-1H-indol-2-yl)methyl]amino}-1-piperidinyl)methyl]-3-fluoro-4-hydroxy-4,5-dihydro-7H-pyrrolo[3,2,1-de]-1,5-naphthyridin-7-one] are at most 4 µg/mL and at most 1.7 µg/mL.
As for `O=c1ccc2ncc(F)c3c2n1C[C@@]3(O)CN1CCC(NCc2cc3ccccc3cn2)CC1` [Example 36, (4S)-3-fluoro-4-hydroxy-4-({4-[(3-isoquinolinylmethyl)amino]-1-piperidinyl}methyl)-4,5-dihydro-7H-pyrrolo[3,2,1-de]-1,5-naphthyridin-7-one], the MIC under setting [1] is at most 4 µg/mL.
Consider `O=C1COc2cnc(CNC3CCN(C[C@]4(O)Cn5c(=O)ccc6ncc(F)c4c65)CC3)nc2N1` [Example 70, (4S)-3-fluoro-4-hydroxy-4-[(4-{[(7-oxo-6,7-dihydro-1H-pyrimido[5,4-b][1,4]oxazin-2-yl)methyl]amino}-1-piperidinyl)methyl]-4,5-dihydro-7H-pyrrolo[3,2,1-de]-1,5-naphthyridin-7-one Dihydrochloride], for which the MIC was at most 1.7 µg/mL. In addition, the MIC (144 h) was at most 4 µg/mL.
`O=c1ccc2ncc(F)c3c2n1C[C@@]3(O)CN1CCC(NCc2cc3c(cn2)OCS3)CC1` [Example 10B, (4S)-3-Fluoro-4-hydroxy-4-({4-[([1,3]oxathiolo[5,4-c]pyridin-6-ylmethyl)amino]-1-piperidinyl}methyl)-4,5-dihydro-7H-pyrrolo[3,2,1-de]-1,5-naphthyridin-7-one (E1 enantiomer series) hydrochloride]: the minimum inhibitory concentration (MIC) was at most 4 µg/mL under setting [1] and at most 1.7 µg/mL under setting [2].
`O=c1ccc2ncc(F)c3c2n1C[C@@]3(O)CN1CCC(NCc2ccc3scnc3c2)CC1` [Example 42, (4S)-4-({4-[(1,3-benzothiazol-5-ylmethyl)amino]-1-piperidinyl}methyl)-3-fluoro-4-hydroxy-4,5-dihydro-7H-pyrrolo[3,2,1-de]-1,5-naphthyridin-7-one]: under setting [1], the MIC was at most 4 µg/mL.
Still for that read-out and setting: as for `O=c1c(F)cc2ncc(F)c3c2n1C[C@@]3(O)CN1CCC(NCc2cc3c(cn2)OCCO3)CC1` [Example 20A, (4S)-4-({4-[(2,3-Dihydro[1,4]dioxino[2,3-c]pyridin-7-ylmethyl)amino]-1-piperidinyl}methyl)-3,8-difluoro-4-hydroxy-4,5-dihydro-7H-pyrrolo[3,2,1-de]-1,5-naphthyridin-7-one (E1 enantiomer series)], the figure is at most 4 µg/mL.
